Holding throughout (test): KiNativ, MOLM13 live cells
Holding throughout (type): cell-based

One assay has as its target PFTAIRE2 (Homo sapiens, UniProt Q96Q40). To be noted: MOLM-13; 100 nM, 2 hours; Lys2; read-out: Inhibition vs DMSO. The protocol:
(§1) Samples were analyzed by KiNativ in situ kinase profiling by ActivX Biosciences.

The target of the next assay is T1, GCK (Homo sapiens, UniProt Q12851).
T1 sequence (Q12851 1-820): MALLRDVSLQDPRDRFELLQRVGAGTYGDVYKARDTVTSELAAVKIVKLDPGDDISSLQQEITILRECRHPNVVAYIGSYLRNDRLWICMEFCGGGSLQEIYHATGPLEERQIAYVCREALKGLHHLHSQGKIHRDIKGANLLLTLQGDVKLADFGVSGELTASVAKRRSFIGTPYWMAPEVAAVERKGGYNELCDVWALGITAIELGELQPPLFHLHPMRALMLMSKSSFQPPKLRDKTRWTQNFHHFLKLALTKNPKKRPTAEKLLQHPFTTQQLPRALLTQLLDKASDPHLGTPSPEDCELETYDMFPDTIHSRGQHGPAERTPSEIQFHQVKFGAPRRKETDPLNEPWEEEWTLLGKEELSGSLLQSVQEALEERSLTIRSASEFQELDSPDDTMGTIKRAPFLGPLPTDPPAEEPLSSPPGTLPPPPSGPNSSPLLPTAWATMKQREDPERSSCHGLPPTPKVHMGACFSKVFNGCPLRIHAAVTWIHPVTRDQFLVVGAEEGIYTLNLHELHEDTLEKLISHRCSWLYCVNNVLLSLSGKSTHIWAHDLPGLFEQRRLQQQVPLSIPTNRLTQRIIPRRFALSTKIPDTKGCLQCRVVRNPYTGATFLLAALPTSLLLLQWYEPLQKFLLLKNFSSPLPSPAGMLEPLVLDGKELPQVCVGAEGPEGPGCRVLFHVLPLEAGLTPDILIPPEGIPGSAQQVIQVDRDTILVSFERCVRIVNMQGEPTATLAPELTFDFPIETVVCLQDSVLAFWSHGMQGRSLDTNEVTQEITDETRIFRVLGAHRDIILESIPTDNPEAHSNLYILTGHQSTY
Particulars: MOLM-13; 100 nM, 2 hours; Lys2; read-out: Inhibition vs DMSO. The protocol:
as §1

For another assay, the target named is LYN (Homo sapiens, UniProt P07948). Particulars: MOLM-13; 100 nM, 2 hours; Activation Loop; read-out: Inhibition vs DMSO. As for the experimental part:
as §1

The target of a further assay is PCTAIRE1 (Homo sapiens, UniProt Q00536). Particulars: MOLM-13; 100 nM, 2 hours; Lys1; read-out: Inhibition vs DMSO. As for the experimental part: as §1
The target of another assay is T2, MLKL (Homo sapiens, UniProt Q8NB16).
T2 sequence (Q8NB16 1-471): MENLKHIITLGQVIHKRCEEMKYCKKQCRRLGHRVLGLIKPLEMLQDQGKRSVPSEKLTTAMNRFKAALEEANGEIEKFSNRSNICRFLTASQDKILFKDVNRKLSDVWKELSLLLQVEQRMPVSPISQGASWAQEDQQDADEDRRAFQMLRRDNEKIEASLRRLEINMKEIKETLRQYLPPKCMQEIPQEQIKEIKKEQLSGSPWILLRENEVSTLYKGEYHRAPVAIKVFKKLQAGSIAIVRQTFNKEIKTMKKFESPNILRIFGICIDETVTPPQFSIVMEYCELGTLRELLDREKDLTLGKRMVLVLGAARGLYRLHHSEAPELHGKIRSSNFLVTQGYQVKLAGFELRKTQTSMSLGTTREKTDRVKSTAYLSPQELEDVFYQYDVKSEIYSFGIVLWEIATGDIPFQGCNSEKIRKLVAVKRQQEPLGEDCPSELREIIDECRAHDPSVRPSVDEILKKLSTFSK
To be noted: MOLM-13, 2 h, 100 nM. As for the experimental part:
as §1

For a further assay, the target named is T3, RSK2 domain1 (Homo sapiens, UniProt P51812).
T3 construct: RSK2 domain1
Particulars: MOLM-13, 2 h, 100 nM. The protocol:
as §1

A further assay addresses PEK (Homo sapiens, UniProt Q9NZJ5). To be noted: 100 nM, 2 hours, Lys2, read-out: Inhibition vs DMSO. The protocol:
as §1

A further assay concerns the target PKN1 (Homo sapiens, UniProt Q16512). Particulars: MOLM-13; 100 nM, 2 hours; Lys2; read-out: Inhibition vs DMSO. The protocol:
as §1

For the next assay, the target named is CaMK1a (Homo sapiens, UniProt Q14012). To be noted: MOLM-13; 100 nM, 2 hours; Lys1; read-out: Inhibition vs DMSO. The protocol:
as §1

A further assay concerns the target MAP4K5 (Homo sapiens, UniProt Q9Y4K4). Particulars: MOLM-13, 2 h, 100 nM. The protocol: as §1
The target in another assay is IRAK1 (Homo sapiens, UniProt P51617). To be noted: MOLM-13; 100 nM, 2 hours; Lys2; read-out: Inhibition vs DMSO. As for the experimental part:
as §1

In another assay the target is T4, IRAK3 (Homo sapiens, UniProt Q9Y616).
T4 sequence (Q9Y616 1-596): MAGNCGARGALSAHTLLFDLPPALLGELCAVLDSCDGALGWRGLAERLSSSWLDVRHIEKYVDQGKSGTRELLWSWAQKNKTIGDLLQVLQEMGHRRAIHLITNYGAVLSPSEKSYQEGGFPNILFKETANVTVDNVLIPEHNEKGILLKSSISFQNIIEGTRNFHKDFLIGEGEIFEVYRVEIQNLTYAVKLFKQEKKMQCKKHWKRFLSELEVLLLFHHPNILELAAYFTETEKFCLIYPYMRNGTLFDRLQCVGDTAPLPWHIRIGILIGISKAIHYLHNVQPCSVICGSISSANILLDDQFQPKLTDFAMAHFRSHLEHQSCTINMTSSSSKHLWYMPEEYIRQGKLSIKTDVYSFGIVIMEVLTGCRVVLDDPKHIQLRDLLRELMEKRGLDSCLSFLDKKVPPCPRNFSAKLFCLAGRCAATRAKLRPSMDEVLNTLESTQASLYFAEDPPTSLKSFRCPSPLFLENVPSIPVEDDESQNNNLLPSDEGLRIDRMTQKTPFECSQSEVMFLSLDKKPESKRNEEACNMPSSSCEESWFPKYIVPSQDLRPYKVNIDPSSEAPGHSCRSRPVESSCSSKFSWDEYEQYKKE
To be noted: MOLM-13; 100 nM, 2 hours; Lys1; read-out: Inhibition vs DMSO. As for the experimental part:
as §1

Where [1] appears, read: Activation Loop, read-out: Inhibition vs DMSO.
[2] abbreviates: Lys1, read-out: Inhibition vs DMSO.
The mark [3] stands for this setting: Lys2, read-out: Inhibition vs DMSO.

In publication PMC7714403 (JCI Insight, 2020) one finds inhibition data, which are given here for one molecule.

Like-named read-outs stand apart in the source and are kept apart here.

Sequence of MAP4K5 (Q9Y4K4 whole entry): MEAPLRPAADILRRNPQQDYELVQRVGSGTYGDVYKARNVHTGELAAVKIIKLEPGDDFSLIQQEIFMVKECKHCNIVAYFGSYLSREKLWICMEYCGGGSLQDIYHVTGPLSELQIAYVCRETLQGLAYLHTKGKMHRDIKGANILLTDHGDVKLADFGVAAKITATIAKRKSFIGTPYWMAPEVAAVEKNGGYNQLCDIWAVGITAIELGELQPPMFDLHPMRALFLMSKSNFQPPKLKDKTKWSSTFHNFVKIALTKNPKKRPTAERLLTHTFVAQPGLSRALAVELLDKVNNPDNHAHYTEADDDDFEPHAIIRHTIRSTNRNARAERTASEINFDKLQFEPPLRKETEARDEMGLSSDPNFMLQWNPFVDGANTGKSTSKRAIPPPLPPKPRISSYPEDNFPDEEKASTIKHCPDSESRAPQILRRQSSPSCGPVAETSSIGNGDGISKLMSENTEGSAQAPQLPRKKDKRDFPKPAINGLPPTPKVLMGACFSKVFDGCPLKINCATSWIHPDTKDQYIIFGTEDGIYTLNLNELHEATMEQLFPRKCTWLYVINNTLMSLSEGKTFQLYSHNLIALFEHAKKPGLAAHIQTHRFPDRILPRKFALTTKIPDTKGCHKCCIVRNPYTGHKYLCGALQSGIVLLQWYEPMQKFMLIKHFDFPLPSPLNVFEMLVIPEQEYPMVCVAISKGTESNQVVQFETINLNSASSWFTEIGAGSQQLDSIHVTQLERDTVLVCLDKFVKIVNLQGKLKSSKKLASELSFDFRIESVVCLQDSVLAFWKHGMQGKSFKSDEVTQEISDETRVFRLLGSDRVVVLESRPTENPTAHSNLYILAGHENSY
T3 sequence (P51812 whole entry, the tested form may be a part): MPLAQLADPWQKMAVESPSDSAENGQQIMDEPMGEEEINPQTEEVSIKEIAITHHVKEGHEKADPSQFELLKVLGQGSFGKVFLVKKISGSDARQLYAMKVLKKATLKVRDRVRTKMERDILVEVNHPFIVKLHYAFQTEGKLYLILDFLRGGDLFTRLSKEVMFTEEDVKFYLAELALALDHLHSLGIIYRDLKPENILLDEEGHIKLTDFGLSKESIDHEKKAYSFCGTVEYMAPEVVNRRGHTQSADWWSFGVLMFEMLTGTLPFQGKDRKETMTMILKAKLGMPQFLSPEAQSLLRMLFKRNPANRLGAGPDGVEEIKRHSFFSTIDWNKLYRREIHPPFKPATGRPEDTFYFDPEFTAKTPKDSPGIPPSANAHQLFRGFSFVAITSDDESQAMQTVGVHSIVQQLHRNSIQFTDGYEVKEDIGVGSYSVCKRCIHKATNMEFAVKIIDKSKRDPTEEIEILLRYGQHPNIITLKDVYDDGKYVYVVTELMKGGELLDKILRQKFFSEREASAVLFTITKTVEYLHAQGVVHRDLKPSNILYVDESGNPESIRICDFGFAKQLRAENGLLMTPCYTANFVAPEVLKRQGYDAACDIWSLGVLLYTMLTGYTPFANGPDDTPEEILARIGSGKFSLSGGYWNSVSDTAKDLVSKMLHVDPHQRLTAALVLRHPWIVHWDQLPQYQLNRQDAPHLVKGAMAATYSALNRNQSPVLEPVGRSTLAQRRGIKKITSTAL
Sequence of CaMK1a (Q14012 whole entry): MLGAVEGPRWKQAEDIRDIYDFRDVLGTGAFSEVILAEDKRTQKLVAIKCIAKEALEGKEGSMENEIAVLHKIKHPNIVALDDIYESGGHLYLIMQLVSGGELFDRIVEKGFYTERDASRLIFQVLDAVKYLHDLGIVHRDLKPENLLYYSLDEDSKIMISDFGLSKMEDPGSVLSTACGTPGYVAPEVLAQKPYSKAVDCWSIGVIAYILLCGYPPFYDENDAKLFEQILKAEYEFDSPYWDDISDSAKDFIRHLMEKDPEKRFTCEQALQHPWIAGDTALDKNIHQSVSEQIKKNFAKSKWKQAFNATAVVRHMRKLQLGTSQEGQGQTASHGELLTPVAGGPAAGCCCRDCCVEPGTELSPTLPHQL
Sequence of PKN1 (Q16512 whole entry): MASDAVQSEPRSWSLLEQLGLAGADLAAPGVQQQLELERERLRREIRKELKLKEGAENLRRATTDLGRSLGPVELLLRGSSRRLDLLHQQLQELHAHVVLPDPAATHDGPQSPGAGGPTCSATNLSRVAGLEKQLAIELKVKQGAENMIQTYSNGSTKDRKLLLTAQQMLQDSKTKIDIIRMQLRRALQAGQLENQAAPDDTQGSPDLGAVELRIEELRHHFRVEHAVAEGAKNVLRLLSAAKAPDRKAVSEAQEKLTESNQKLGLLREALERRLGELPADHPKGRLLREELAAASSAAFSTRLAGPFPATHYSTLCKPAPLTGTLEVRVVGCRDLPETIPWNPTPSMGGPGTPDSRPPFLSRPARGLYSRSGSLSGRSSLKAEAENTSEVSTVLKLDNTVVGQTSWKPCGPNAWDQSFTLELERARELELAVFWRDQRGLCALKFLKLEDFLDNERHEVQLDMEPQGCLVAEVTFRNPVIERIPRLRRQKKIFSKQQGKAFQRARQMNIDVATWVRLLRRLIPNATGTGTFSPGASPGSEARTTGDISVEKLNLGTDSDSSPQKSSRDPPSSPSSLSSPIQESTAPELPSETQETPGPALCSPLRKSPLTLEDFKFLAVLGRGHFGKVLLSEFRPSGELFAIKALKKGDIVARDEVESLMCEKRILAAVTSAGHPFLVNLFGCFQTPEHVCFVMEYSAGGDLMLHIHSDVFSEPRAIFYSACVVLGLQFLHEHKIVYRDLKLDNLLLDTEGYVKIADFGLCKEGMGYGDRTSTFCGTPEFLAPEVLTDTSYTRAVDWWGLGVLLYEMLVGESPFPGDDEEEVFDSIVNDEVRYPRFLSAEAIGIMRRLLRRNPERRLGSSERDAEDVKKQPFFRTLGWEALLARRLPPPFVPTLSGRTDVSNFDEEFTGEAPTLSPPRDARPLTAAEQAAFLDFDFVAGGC
Sequence of PEK (Q9NZJ5 30-1116): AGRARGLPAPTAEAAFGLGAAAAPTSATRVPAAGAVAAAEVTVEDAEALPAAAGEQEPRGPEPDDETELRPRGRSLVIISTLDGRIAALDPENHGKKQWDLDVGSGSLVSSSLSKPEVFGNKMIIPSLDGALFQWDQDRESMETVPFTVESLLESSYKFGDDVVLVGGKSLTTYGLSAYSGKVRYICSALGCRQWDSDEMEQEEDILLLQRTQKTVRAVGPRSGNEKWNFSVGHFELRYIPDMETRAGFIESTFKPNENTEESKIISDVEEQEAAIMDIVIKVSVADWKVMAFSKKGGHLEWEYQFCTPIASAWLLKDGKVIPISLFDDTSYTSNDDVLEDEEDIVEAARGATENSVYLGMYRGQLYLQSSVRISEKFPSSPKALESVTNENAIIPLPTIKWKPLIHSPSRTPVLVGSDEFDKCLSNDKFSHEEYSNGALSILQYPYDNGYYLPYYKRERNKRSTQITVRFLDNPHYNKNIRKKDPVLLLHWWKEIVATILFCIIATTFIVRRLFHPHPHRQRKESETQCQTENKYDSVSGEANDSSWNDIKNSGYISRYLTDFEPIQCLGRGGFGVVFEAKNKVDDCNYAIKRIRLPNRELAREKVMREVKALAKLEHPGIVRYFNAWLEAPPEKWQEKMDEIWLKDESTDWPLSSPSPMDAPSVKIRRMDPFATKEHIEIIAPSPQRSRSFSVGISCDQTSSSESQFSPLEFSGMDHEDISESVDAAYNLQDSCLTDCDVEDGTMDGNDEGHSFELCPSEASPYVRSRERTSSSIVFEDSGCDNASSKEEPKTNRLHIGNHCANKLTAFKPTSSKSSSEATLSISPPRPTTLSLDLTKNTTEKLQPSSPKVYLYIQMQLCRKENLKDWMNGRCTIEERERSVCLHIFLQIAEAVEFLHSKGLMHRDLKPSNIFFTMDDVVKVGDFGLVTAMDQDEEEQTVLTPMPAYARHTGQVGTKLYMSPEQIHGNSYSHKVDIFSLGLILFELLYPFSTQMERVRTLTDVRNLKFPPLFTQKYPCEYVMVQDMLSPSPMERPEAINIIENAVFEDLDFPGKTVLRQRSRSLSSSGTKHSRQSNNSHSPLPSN
Sequence of PFTAIRE2 (Q96Q40 whole entry): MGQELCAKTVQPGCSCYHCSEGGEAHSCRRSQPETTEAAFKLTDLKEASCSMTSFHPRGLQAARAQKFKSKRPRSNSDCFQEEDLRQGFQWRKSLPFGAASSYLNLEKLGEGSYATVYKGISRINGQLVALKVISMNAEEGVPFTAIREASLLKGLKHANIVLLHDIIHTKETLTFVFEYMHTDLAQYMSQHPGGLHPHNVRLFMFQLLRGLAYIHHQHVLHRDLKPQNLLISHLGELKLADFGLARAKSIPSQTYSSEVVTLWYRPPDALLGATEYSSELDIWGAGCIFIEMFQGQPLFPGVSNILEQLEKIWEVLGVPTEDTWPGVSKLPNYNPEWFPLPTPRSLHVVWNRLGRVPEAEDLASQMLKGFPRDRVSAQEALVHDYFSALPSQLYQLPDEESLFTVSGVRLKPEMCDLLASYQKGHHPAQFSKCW
Sequence of PCTAIRE1 (Q00536 whole entry): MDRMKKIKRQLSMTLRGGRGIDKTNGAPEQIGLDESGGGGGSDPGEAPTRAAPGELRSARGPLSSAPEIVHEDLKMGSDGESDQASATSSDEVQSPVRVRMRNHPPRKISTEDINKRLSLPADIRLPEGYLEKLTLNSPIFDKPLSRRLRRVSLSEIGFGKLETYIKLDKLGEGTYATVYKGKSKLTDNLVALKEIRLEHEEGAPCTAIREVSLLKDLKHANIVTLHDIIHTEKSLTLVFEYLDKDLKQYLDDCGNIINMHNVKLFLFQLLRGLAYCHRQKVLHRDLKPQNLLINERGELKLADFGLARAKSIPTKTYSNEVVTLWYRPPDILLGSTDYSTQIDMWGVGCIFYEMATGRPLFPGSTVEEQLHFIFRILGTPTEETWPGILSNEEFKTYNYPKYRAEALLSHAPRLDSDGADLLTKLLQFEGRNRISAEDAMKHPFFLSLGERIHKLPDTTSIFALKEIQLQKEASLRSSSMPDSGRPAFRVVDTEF

`CN1CCN(Cc2ccc(Nc3ncc(Cl)c(Nc4ccccc4S(=O)(=O)N(C)C)n3)cc2)CC1` [TP-0903]: the inhibition at 0.1 µM on PFTAIRE2 was 16.4%; on GCK, 29.8%; at LYN it was 58.8%; at PCTAIRE1, 69.6%; at MLKL (setting [1]) it was -29%; on MLKL (setting [2]) it was -26.9%. The inhibition at 0.1 µM at MLKL (Protein Kinase Domain, read-out: Inhibition vs DMSO) was -65.7%; at RSK2 domain1 (setting [1]), 22.7%; on RSK2 domain1 (setting [3]), -0.9%; at PEK it was 1.7%; at PKN1 it was -25.2%; on CaMK1a, 1.3%. Further, the inhibition at 0.1 µM was found to be 54.8% on MAP4K5 (setting [2]), 42.9% on MAP4K5 (setting [3]), 43.3% at IRAK1 and 92.5% on IRAK3.
